Test results published in PubChem BioAssay (NCI).
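Exposure lasted 48 hours, with cells grown in 96-well plates and compounds tested at five concentrations. GI50: concentration for 50% inhibition of growth. TGI is the concentration that stops growth completely.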

What was measured:
Assay in all cases: inhibition of tumour cell growth, NCI panel, 48 h
HOP-92 NSCLC = tested on: HOP-92 NSCLC
SK-MEL-2 melanoma = tested on: SK-MEL-2 melanoma
MDA-MB-231 breast = tested on: MDA-MB-231 breast
OVCAR-5 ovarian = tested on: OVCAR-5 ovarian
PC-3 prostate = tested on: PC-3 prostate
SF-539 CNS = tested on: SF-539 CNS
LOX IMVI melanoma = tested on: LOX IMVI melanoma
SR leukemia = tested on: SR leukemia
U251 CNS = tested on: U251 CNS
OVCAR-8 ovarian = tested on: OVCAR-8 ovarian
M14 melanoma = tested on: M14 melanoma
HOP-62 NSCLC = tested on: HOP-62 NSCLC
HCT-116 colon = tested on: HCT-116 colon
SK-OV-3 ovarian = tested on: SK-OV-3 ovarian
MCF7 breast = tested on: MCF7 breast
786-0 renal = tested on: 786-0 renal
MDA-MB-435 = tested on: MDA-MB-435
SF-268 CNS = tested on: SF-268 CNS
RXF 393 renal = tested on: RXF 393 renal
NCI-H522 lung = tested on: NCI-H522 lung
NCI-H23 lung = tested on: NCI-H23 lung
UACC-62 melanoma = tested on: UACC-62 melanoma
SNB-75 CNS = tested on: SNB-75 CNS
A498 renal = tested on: A498 renal
A549 NSCLC = tested on: A549 NSCLC
RPMI-8226 leukemia = tested on: RPMI-8226 leukemia
BT-549 breast = tested on: BT-549 breast
NCI-H226 lung = tested on: NCI-H226 lung
CAKI-1 renal = tested on: CAKI-1 renal
SK-MEL-28 melanoma = tested on: SK-MEL-28 melanoma
TK-10 renal = tested on: TK-10 renal
HL-60(TB) leukemia = tested on: HL-60(TB) leukemia
HCT-15 colon = tested on: HCT-15 colon
NCI-H460 lung = tested on: NCI-H460 lung
SW-620 colon = tested on: SW-620 colon
CCRF-CEM leukemia = tested on: CCRF-CEM leukemia
MALME-3M melanoma = tested on: MALME-3M melanoma
IGROV1 ovarian = tested on: IGROV1 ovarian
K-562 leukemia = tested on: K-562 leukemia
SK-MEL-5 melanoma = tested on: SK-MEL-5 melanoma
SF-295 CNS = tested on: SF-295 CNS
T-47D breast = tested on: T-47D breast
UACC-257 melanoma = tested on: UACC-257 melanoma
MOLT-4 leukemia = tested on: MOLT-4 leukemia
COLO 205 colon = tested on: COLO 205 colon
SNB-19 CNS = tested on: SNB-19 CNS
HS 578T breast = tested on: HS 578T breast
EKVX NSCLC = tested on: EKVX NSCLC
HCC-2998 colon = tested on: HCC-2998 colon
SN12C renal = tested on: SN12C renal
OVCAR-3 ovarian = tested on: OVCAR-3 ovarian
KM12 colon = tested on: KM12 colon
OVCAR-4 ovarian = tested on: OVCAR-4 ovarian
ACHN renal = tested on: ACHN renal
HT29 colon = tested on: HT29 colon
DU-145 prostate = tested on: DU-145 prostate
UO-31 renal = tested on: UO-31 renal
NCI/ADR-RES ovarian = tested on: NCI/ADR-RES ovarian

For Cc1ccc(-c2c(C#N)[n+](=O)c3cc(Cl)c(Cl)cc3n2[O-])cc1, the GI50 (HOP-92 NSCLC) was 6 µM, the TGI (HOP-92 NSCLC) was 13.7 µM and the GI50 (SK-MEL-2 melanoma) was 17.3 µM. It also gave a TGI (SK-MEL-2 melanoma) of 34.7 µM, a GI50 (MDA-MB-231 breast) of 3.49 µM and a GI50 (OVCAR-5 ovarian) of 6.02 µM. For the same compound, the TGI (OVCAR-5 ovarian) was 14.7 µM, the GI50 (PC-3 prostate) was 6.88 µM and the TGI (PC-3 prostate) was 18.5 µM. It also gave a GI50 (SF-539 CNS) of 16.1 µM, a TGI (SF-539 CNS) of 35 µM and a GI50 (LOX IMVI melanoma) of 27.1 µM. It also gave a TGI (LOX IMVI melanoma) of over 100 µM, a GI50 (SR leukemia) of 2.13 µM and a TGI (SR leukemia) of over 100 µM. The GI50 (U251 CNS) was 34.6 µM, the TGI (U251 CNS) was over 100 µM and the GI50 (OVCAR-8 ovarian) was 7.39 µM. For the same compound, the TGI (OVCAR-8 ovarian) was 23.1 µM, the GI50 (M14 melanoma) was 4.95 µM and the TGI (M14 melanoma) was 19.2 µM. The GI50 (HOP-62 NSCLC) was 10.3 µM, the TGI (HOP-62 NSCLC) was 26.7 µM and the GI50 (HCT-116 colon) was 2.16 µM. For the same compound, the GI50 (SK-OV-3 ovarian) was 21.6 µM, the TGI (SK-OV-3 ovarian) was 47.1 µM and the GI50 (MCF7 breast) was 13.6 µM. For the same compound, the TGI (MCF7 breast) was 34.9 µM, the GI50 (786-0 renal) was 13.4 µM and the TGI (786-0 renal) was 30.1 µM. The GI50 (MDA-MB-435) was 17.2 µM, the TGI (MDA-MB-435) was 35.2 µM and the GI50 (SF-268 CNS) was 5.16 µM. For the same compound, the TGI (SF-268 CNS) was 18 µM, the GI50 (RXF 393 renal) was 5.53 µM and the TGI (RXF 393 renal) was 12.6 µM. The GI50 (NCI-H522 lung) was 12.9 µM, the TGI (NCI-H522 lung) was over 67.4 µM and the GI50 (NCI-H23 lung) was 5.46 µM. The TGI (NCI-H23 lung) was 13.1 µM, the GI50 (UACC-62 melanoma) was over 47 µM and the TGI (UACC-62 melanoma) was over 69.4 µM. For the same compound, the GI50 (SNB-75 CNS) was 18.2 µM, the TGI (SNB-75 CNS) was 38.2 µM and the GI50 (A498 renal) was 16.3 µM. It also gave a TGI (A498 renal) of 30.4 µM, a GI50 (A549 NSCLC) of 8.32 µM and a TGI (A549 NSCLC) of 23.3 µM. The GI50 (RPMI-8226 leukemia) was 4.76 µM, the TGI (RPMI-8226 leukemia) was 16.7 µM and the GI50 (BT-549 breast) was 16.1 µM. For the same compound, the TGI (BT-549 breast) was 35.5 µM, the GI50 (NCI-H226 lung) was 40.4 µM and the TGI (NCI-H226 lung) was over 100 µM. For the same compound, the GI50 (CAKI-1 renal) was 16.9 µM, the TGI (CAKI-1 renal) was 32.2 µM and the GI50 (SK-MEL-28 melanoma) was 3.98 µM. The TGI (SK-MEL-28 melanoma) was 13.5 µM, the GI50 (TK-10 renal) was 16.7 µM and the TGI (TK-10 renal) was 32.9 µM. The GI50 (HL-60(TB) leukemia) was 2.5 µM, the TGI (HL-60(TB) leukemia) was over 100 µM and the GI50 (HCT-15 colon) was 29.9 µM. The TGI (HCT-15 colon) was over 100 µM, the GI50 (NCI-H460 lung) was 20 µM and the TGI (NCI-H460 lung) was 41.3 µM. For the same compound, the GI50 (SW-620 colon) was 5.08 µM, the TGI (SW-620 colon) was 11.8 µM and the GI50 (CCRF-CEM leukemia) was 2.95 µM. For the same compound, the TGI (CCRF-CEM leukemia) was 15.6 µM, the GI50 (MALME-3M melanoma) was 7 µM and the TGI (MALME-3M melanoma) was 25.2 µM. The GI50 (IGROV1 ovarian) was 3.41 µM, the TGI (IGROV1 ovarian) was over 36.9 µM and the GI50 (K-562 leukemia) was 2.56 µM. It also gave a GI50 (SK-MEL-5 melanoma) of 13.9 µM, a TGI (SK-MEL-5 melanoma) of 27.2 µM and a GI50 (SF-295 CNS) of 19.4 µM. It also gave a TGI (SF-295 CNS) of 37.9 µM, a GI50 (T-47D breast) of 5.98 µM and a TGI (T-47D breast) of 16.3 µM. The GI50 (UACC-257 melanoma) was 4.89 µM, the TGI (UACC-257 melanoma) was 9.77 µM and the GI50 (MOLT-4 leukemia) was 1.55 µM. For the same compound, the TGI (MOLT-4 leukemia) was 3.41 µM, the GI50 (COLO 205 colon) was 8.97 µM and the TGI (COLO 205 colon) was 24.2 µM. The GI50 (SNB-19 CNS) was 14.4 µM, the TGI (SNB-19 CNS) was over 47.1 µM and the GI50 (HS 578T breast) was 10.3 µM. The TGI (HS 578T breast) was 48.9 µM, the GI50 (EKVX NSCLC) was 21.5 µM and the TGI (EKVX NSCLC) was 45.4 µM. It also gave a GI50 (HCC-2998 colon) of 4.76 µM, a TGI (HCC-2998 colon) of 11.6 µM and a GI50 (SN12C renal) of 30.5 µM. It also gave a TGI (SN12C renal) of 85.6 µM, a GI50 (OVCAR-3 ovarian) of 8.29 µM and a TGI (OVCAR-3 ovarian) of 23.5 µM. The GI50 (KM12 colon) was 6.05 µM, the TGI (KM12 colon) was 26.6 µM and the GI50 (OVCAR-4 ovarian) was 10.8 µM. For the same compound, the TGI (OVCAR-4 ovarian) was 30.4 µM, the GI50 (ACHN renal) was 5.27 µM and the GI50 (HT29 colon) was 2.94 µM. The TGI (HT29 colon) was 11 µM, the GI50 (DU-145 prostate) was 17 µM and the TGI (DU-145 prostate) was 33.2 µM. The GI50 (UO-31 renal) was 13.6 µM, the TGI (UO-31 renal) was 35.7 µM and the GI50 (NCI/ADR-RES ovarian) was 5.86 µM. The TGI (NCI/ADR-RES ovarian) was 17.3 µM.

In the case of CC(=O)C(C)CCOC1(C)OCCC1C (stereo not given), the TGI (HOP-92 NSCLC) is reported as over 100 µM, the TGI (SK-MEL-2 melanoma) is reported as over 100 µM and the TGI (MDA-MB-231 breast) is reported as over 100 µM. For the same compound, the TGI (OVCAR-5 ovarian) was over 100 µM, the TGI (PC-3 prostate) was over 100 µM and the TGI (SF-539 CNS) was over 100 µM. For the same compound, the TGI (LOX IMVI melanoma) was over 100 µM, the TGI (SR leukemia) was over 100 µM and the TGI (U251 CNS) was over 100 µM. For the same compound, the TGI (OVCAR-8 ovarian) was over 100 µM, the TGI (M14 melanoma) was over 100 µM and the TGI (HOP-62 NSCLC) was over 100 µM. For the same compound, the TGI (HCT-116 colon) was over 100 µM, the TGI (SK-OV-3 ovarian) was over 100 µM and the TGI (MCF7 breast) was over 100 µM. For the same compound, the TGI (786-0 renal) was over 100 µM, the TGI (MDA-MB-435) was over 100 µM and the TGI (SF-268 CNS) was over 100 µM. The TGI (RXF 393 renal) was over 100 µM, the TGI (NCI-H522 lung) was over 100 µM and the TGI (NCI-H23 lung) was over 100 µM. For the same compound, the TGI (UACC-62 melanoma) was over 100 µM, the TGI (SNB-75 CNS) was over 100 µM and the TGI (A498 renal) was over 100 µM. For the same compound, the TGI (A549 NSCLC) was over 100 µM, the TGI (RPMI-8226 leukemia) was over 100 µM and the TGI (BT-549 breast) was over 100 µM. It also gave a TGI (NCI-H226 lung) of over 100 µM, a TGI (CAKI-1 renal) of over 100 µM and a TGI (SK-MEL-28 melanoma) of over 100 µM. For the same compound, the TGI (TK-10 renal) was over 100 µM, the TGI (HL-60(TB) leukemia) was over 100 µM and the TGI (HCT-15 colon) was over 100 µM. It also gave a TGI (NCI-H460 lung) of over 100 µM, a TGI (SW-620 colon) of over 100 µM and a TGI (CCRF-CEM leukemia) of over 100 µM. It also gave a TGI (MALME-3M melanoma) of over 100 µM, a TGI (IGROV1 ovarian) of over 100 µM and a TGI (K-562 leukemia) of over 100 µM. For the same compound, the TGI (SK-MEL-5 melanoma) was over 100 µM, the TGI (SF-295 CNS) was over 100 µM and the TGI (T-47D breast) was over 100 µM. The TGI (UACC-257 melanoma) was over 100 µM, the TGI (MOLT-4 leukemia) was over 100 µM and the TGI (COLO 205 colon) was over 100 µM. It also gave a TGI (SNB-19 CNS) of over 100 µM, a TGI (HS 578T breast) of over 100 µM and a TGI (EKVX NSCLC) of over 100 µM. It also gave a TGI (HCC-2998 colon) of over 100 µM, a TGI (SN12C renal) of over 100 µM and a TGI (OVCAR-3 ovarian) of over 100 µM. The TGI (KM12 colon) was over 100 µM, the TGI (OVCAR-4 ovarian) was over 100 µM and the TGI (ACHN renal) was over 100 µM. For the same compound, the TGI (HT29 colon) was over 100 µM, the TGI (DU-145 prostate) was over 100 µM and the TGI (UO-31 renal) was over 100 µM. The TGI (NCI/ADR-RES ovarian) was over 100 µM.
